Test systems include KM12; HOP-62; A498; SN12C; OVCAR-4; HCT-15; SNB-19; IGROV-1; MDA-MB-231; SR; SF-295; Malme-3M; SW-620; SK-MEL-5; NCI-H226; 786-0; RXF 393; A549; U-251; HT-29.
Common to all, as to assay: DTP human tumour cell line panel, 48 h

This note sets out measurements from ChEMBL document CHEMBL1201862, “PubChem BioAssay data set” (2004).

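Values below derive from 48-hour exposures of cells grown in 96-well plates, with endpoints linearly interpolated between the two concentrations bracketing the appropriate inhibition level. The concentration for 50% growth inhibition is given as GI50.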 The source made the active and inactive calls. No stated cut-off is given here; in the data, active = GI50 up to about 1.1 µM and inactive = higher.

As to `c1ccc(CCNCc2ccco2)nc1`, the GI50 in the test on KM12 is > 100 µM (inactive); in the test with HOP-62, > 100 µM (inactive); in the test on A498, > 100 µM (inactive); in the test with SN12C it was > 100 µM (inactive); with OVCAR-4, > 100 µM (inactive); in the test with HCT-15, over 100 µM. Besides, the GI50 with SNB-19 was > 100 µM (inactive); in the test on IGROV-1, > 100 µM (inactive); in the test with MDA-MB-231, > 100 µM (inactive); in the test on SR, 1 µM (active); in the test on SF-295, > 100 µM (inactive); with Malme-3M, > 100 µM (inactive). In addition, the GI50 in the test with SW-620, in the test with SK-MEL-5, in the test with NCI-H226, in the test on 786-0, in the test with RXF 393 and with A549 was > 100 µM (inactive) each time. Besides, the GI50 in the test with U-251 and with HT-29 was > 100 µM (inactive) in each case.

Consider `CC(=O)Oc1ccc2c(c1)c1c(=O)oc(N(C)C)nc1n2Cc1ccccc1`, for which the GI50 with KM12 is 56.6 µM (inactive); in the test on HOP-62, > 59.3 µM (inactive); in the test with A498, > 41.1 µM (inactive); in the test with SN12C it was > 100 µM (inactive); in the test on OVCAR-4, 57.9 µM (inactive); in the test with HCT-15, 37.9 µM. Moreover, the GI50 was > 100 µM (inactive) in the test on SNB-19; > 95.1 µM (inactive) with IGROV-1; > 75.7 µM (inactive) in the test on MDA-MB-231; 43.1 µM (inactive) in the test on SR; 47.9 µM (inactive) in the test with SF-295; 47.9 µM (inactive) with Malme-3M. For the same molecule, the GI50 was 81.1 µM (inactive) in the test with SW-620; 42 µM (inactive) with SK-MEL-5; > 80.4 µM (inactive) with NCI-H226; 50.9 µM (inactive) with 786-0; 52.5 µM (inactive) in the test on RXF 393; 48.4 µM (inactive) with A549. Also, the GI50 was 39 µM (inactive) in the test with U-251 and 64 µM (inactive) in the test on HT-29.

Consider `C/C(CC(O)(C(F)(F)F)C(F)(F)F)=N\NC(N)=S`, for which the GI50 is > 10 µM (inactive) in the test on KM12; > 10 µM (inactive) with HOP-62; > 10 µM (inactive) in the test on A498; > 10 µM (inactive) with SN12C; > 10 µM (inactive) in the test with OVCAR-4; over 10 µM in the test with HCT-15. The GI50 with SNB-19, in the test on IGROV-1, in the test on MDA-MB-231, with SR, in the test on SF-295 and in the test on Malme-3M was > 10 µM (inactive) in each case. Also, the GI50 with SW-620, in the test with SK-MEL-5, with NCI-H226, in the test on 786-0, in the test on RXF 393 and in the test with A549 was > 10 µM (inactive) each time. For the same molecule, the GI50 with U-251 and with HT-29 was > 10 µM (inactive) in each case.

As to `CC(C)(C)OC(=O)N1CC(CCl)c2ccc(O)cc21` (stereo not given), the GI50 in the test with KM12 was 2.1 µM (inactive); in the test on HOP-62, 3.29 µM (inactive); with A498, 2.06 µM (inactive); in the test with SN12C it was 3.23 µM (inactive); in the test on OVCAR-4, 0.267 µM (active); in the test on HCT-15 it was 2.59 µM. For the same molecule, the GI50 in the test on SNB-19 is 3.32 µM (inactive); with IGROV-1, 3.84 µM (inactive); with MDA-MB-231 it was 2.53 µM (inactive); in the test with SR, 1.45 µM (inactive); with SF-295, 3.65 µM (inactive); in the test on Malme-3M, 1.64 µM (inactive). The GI50 with SW-620 is 2.59 µM (inactive); with SK-MEL-5, 1.35 µM (inactive); with NCI-H226, 2.06 µM (inactive); in the test with 786-0 it was 3.74 µM (inactive); with RXF 393 it was 0.693 µM (active); with A549, 3.12 µM (inactive). Besides, the GI50 with U-251 and with HT-29 was 3.15 µM (inactive) in each case.

Take `COCOC1/C=C/CCCCC(=O)C(C)C#CC1` (stereo not given): the GI50 was 7.4 µM (inactive) in the test with KM12; 17.5 µM (inactive) in the test with HOP-62; 10.7 µM (inactive) in the test on A498; 6.27 µM (inactive) in the test on SN12C; 10.2 µM (inactive) in the test on OVCAR-4; 2.36 µM in the test on HCT-15. For the same molecule, the GI50 was 17.8 µM (inactive) in the test with SNB-19; 3.65 µM (inactive) in the test with IGROV-1; 4.73 µM (inactive) with MDA-MB-231; 2.74 µM (inactive) in the test with SR; 16.6 µM (inactive) in the test on SF-295; 1.98 µM (inactive) in the test on Malme-3M. Besides, the GI50 is 1.89 µM (inactive) in the test on SW-620; 8.87 µM (inactive) with SK-MEL-5; 17.2 µM (inactive) with NCI-H226; 2.09 µM (inactive) in the test on 786-0; 3.06 µM (inactive) in the test with RXF 393; 12.9 µM (inactive) with A549. Further, the figures for the GI50 in the test with U-251 and with HT-29 were 14.4 µM (inactive) and 3.37 µM (inactive), respectively.

Consider `CN(C)c1ccc(/C=C2\N=C(c3ccc([N+](=O)[O-])cc3)OC2=O)cc1`, for which the GI50 is 67.5 µM (inactive) in the test on KM12; > 100 µM (inactive) with HOP-62; > 100 µM (inactive) in the test on A498; > 100 µM (inactive) in the test with SN12C; > 100 µM (inactive) in the test with OVCAR-4; 20 µM in the test on HCT-15. Also, the GI50 with SNB-19 is 99.8 µM (inactive); in the test on IGROV-1, > 100 µM (inactive); in the test on MDA-MB-231, 64.6 µM (inactive); with SR, 38.4 µM (inactive); in the test with SF-295, > 100 µM (inactive); with Malme-3M it was 49.2 µM (inactive). Further, the GI50 in the test with SW-620 was 67.6 µM (inactive); in the test on SK-MEL-5 it was > 100 µM (inactive); with NCI-H226 it was > 100 µM (inactive); in the test on 786-0, 90.8 µM (inactive); with RXF 393, 21.5 µM (inactive); in the test on A549 it was 91 µM (inactive). Also, the GI50 in the test with U-251 was 53.2 µM (inactive); in the test with HT-29, 72.6 µM (inactive).

`CSc1c(C)[n+]([O-])c2cc(Cl)c(Cl)cc2[n+]1[O-]`: the GI50 is 31.4 µM (inactive) in the test with KM12; 33.3 µM (inactive) in the test on HOP-62; 21.6 µM (inactive) in the test on A498; 16.4 µM (inactive) in the test on SN12C; 16.4 µM (inactive) in the test on OVCAR-4; 17 µM with HCT-15. Moreover, the GI50 in the test on SNB-19 was > 86.9 µM (inactive); with IGROV-1 it was 14 µM (inactive); in the test on MDA-MB-231 it was 20.2 µM (inactive); in the test on SR, 3.13 µM (inactive); with SF-295, > 56.8 µM (inactive); with Malme-3M it was 16.9 µM (inactive). The GI50 was 16.8 µM (inactive) in the test with SW-620; 17.7 µM (inactive) with SK-MEL-5; 13.1 µM (inactive) in the test with NCI-H226; 17.3 µM (inactive) in the test with 786-0; 21.5 µM (inactive) with RXF 393; > 100 µM (inactive) with A549. Besides, the GI50 was 21.9 µM (inactive) with U-251 and 18.1 µM (inactive) with HT-29.

Turning to `Cc1cccc2c1CC1(Cc3ccccc3C1=O)C2=O` (stereo not given), the GI50 in the test on KM12 was > 100 µM (inactive); in the test on HOP-62 it was 35.7 µM (inactive); in the test with A498, > 100 µM (inactive); in the test with SN12C, > 100 µM (inactive); in the test on OVCAR-4 it was > 100 µM (inactive); with HCT-15, over 100 µM. Further, the GI50 in the test on SNB-19, with IGROV-1, in the test with MDA-MB-231, in the test with SR, with SF-295 and in the test on Malme-3M was > 100 µM (inactive) throughout. Besides, the GI50 in the test on SW-620, with SK-MEL-5, in the test on NCI-H226, with 786-0, in the test with RXF 393 and with A549 was > 100 µM (inactive) throughout. For the same molecule, the GI50 in the test with U-251 and in the test on HT-29 was > 100 µM (inactive) throughout.

On to `S=C(N/N=C(/c1ccccc1)c1ccccn1)Nc1ccccc1Cl`, for which the concentration for 50% growth inhibition (GI50) in the test on KM12 is 0.0649 µM (active); in the test on HOP-62, 1.77 µM (inactive); in the test on A498, 1.13 µM (inactive); in the test with SN12C it was 0.168 µM (active); with OVCAR-4, 0.879 µM (active); in the test on HCT-15, 0.0179 µM. In addition, the GI50 was 4.95 µM (inactive) in the test on SNB-19; < 0.0105 µM (active) with IGROV-1; < 0.01 µM (active) in the test with MDA-MB-231; < 0.0189 µM (active) with SR; 0.356 µM (active) in the test with SF-295; 0.0681 µM (active) in the test on Malme-3M. The concentration for 50% growth inhibition (GI50) in the test on SW-620 is < 0.01 µM (active); in the test on SK-MEL-5 it was 0.121 µM (active); with NCI-H226, 0.0993 µM (active); with 786-0 it was < 0.018 µM (active); in the test with RXF 393, 0.124 µM (active); in the test with A549, 0.0946 µM (active). Also, the GI50 in the test on U-251 is 0.0158 µM (active); in the test on HT-29, < 0.0227 µM (active).

`C=C(C(=O)O[C@H]1C(=O)C2=C(C)CCC3C(=C)C(=O)O[C@@H]3C2[C@]1(C)O)C1CC[C@]2(C)CCCC(=C)[C@H]2C1` (stereo not given in full): the GI50 in the test on KM12 was 6.85 µM (inactive); in the test on HOP-62 it was 8.32 µM (inactive); in the test on A498, 10.7 µM (inactive); in the test with SN12C, 2.48 µM (inactive); in the test on OVCAR-4, 5.36 µM (inactive); with HCT-15, 3.48 µM. Besides, the GI50 in the test on SNB-19 was 13.1 µM (inactive); in the test with IGROV-1, 4.62 µM (inactive); in the test on MDA-MB-231, 5.78 µM (inactive); with SR it was 7.4 µM (inactive); with SF-295 it was 15.5 µM (inactive); with Malme-3M it was 8.83 µM (inactive). The GI50 was 7.46 µM (inactive) with SW-620; 12.2 µM (inactive) in the test on SK-MEL-5; 17.1 µM (inactive) in the test with NCI-H226; 1.88 µM (inactive) in the test on 786-0; 0.0246 µM (active) in the test with RXF 393; 8.89 µM (inactive) in the test with A549. Further, the GI50 was 4.94 µM (inactive) with U-251 and 4.24 µM (inactive) in the test with HT-29.
